We go through eleven molecules from ChEMBL document CHEMBL1201862, “PubChem BioAssay data set” (2004).

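Five compound concentrations were applied to cells in 96-well plates for 48 hours; endpoints were derived by simple linear interpolation of the resulting dose-response curve. The concentration for 50% growth inhibition is given as GI50.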 Activity calls are given as the source filed them. No stated cut-off is given here; in the data, active = GI50 up to about 1.1 µM and inactive = higher. Where only a bound is given, the exact number is not on record here.

Some test systems named below: RXF 393; CCRF-CEM; UACC-257; OVCAR-3; TK-10; SF-295; NCI-H522; A498; KM12; Malme-3M; HCC 2998; EKVX; OVCAR-4; MDA-MB-435; HCT-116; COLO 205; NCI-H226; K562; MOLT-4; HL-60.
Assay in all cases: growth of human tumour cells (NCI), 48 h

For `COc1cc(OC)cc(-c2nc3cc(F)ccc3s2)c1`, the GI50 was 17 µM (inactive) in the test on RXF 393; > 100 µM (inactive) in the test on CCRF-CEM; > 100 µM (inactive) with UACC-257; 26.2 µM (inactive) with OVCAR-3; 15.8 µM (inactive) in the test with TK-10; 10.6 µM (inactive) with SF-295. In addition, the GI50 with NCI-H522 was 19 µM (inactive); in the test with A498, 19.1 µM (inactive); in the test with KM12 it was > 100 µM (inactive); in the test on Malme-3M, 55 µM (inactive); with HCC 2998, < 0.01 µM (active); with EKVX, 12.1 µM (inactive). Further, the GI50 is > 100 µM (inactive) in the test with OVCAR-4; > 100 µM (inactive) in the test on MDA-MB-435; 13.6 µM (inactive) with HCT-116; 34.1 µM (inactive) in the test with COLO 205; 13.7 µM (inactive) in the test on NCI-H226.

Turning to `COc1ccc(C(=O)Cn2c(C(=O)/C=C/c3ccco3)nc3ccccc32)cc1`, the GI50 was 41.3 µM (inactive) in the test on RXF 393; 22.2 µM (inactive) with K562; 25.1 µM (inactive) with CCRF-CEM; 27.4 µM (inactive) with UACC-257; 15.8 µM (inactive) in the test on MOLT-4; 24.9 µM (inactive) with OVCAR-3. The GI50 was 44.8 µM (inactive) with TK-10; 35.5 µM (inactive) with A498; 28.3 µM (inactive) with KM12; 22.1 µM (inactive) in the test on HL-60; 35.2 µM (inactive) with Malme-3M; 16.6 µM (inactive) in the test on HCC 2998. The GI50 in the test with OVCAR-4 is 37.1 µM (inactive); in the test with MDA-MB-435, 24.4 µM (inactive); with HCT-116, 29.3 µM (inactive); in the test on COLO 205, 21.7 µM (inactive); with NCI-H226 it was 50.9 µM (inactive).

For `CC(C)(C)C(=O)OCC1CCC[N+]2(C)CCCCC12` (centres undefined), the GI50 with RXF 393, with K562, with CCRF-CEM, with UACC-257, in the test with MOLT-4 and in the test on OVCAR-3 was > 100 µM (inactive) in each case. Further, the GI50 in the test on TK-10, in the test on SF-295, in the test on A498, in the test with KM12, in the test with Malme-3M and in the test with HCC 2998 was > 100 µM (inactive) in each case. The GI50 with EKVX, with OVCAR-4, with MDA-MB-435, in the test on HCT-116, in the test on COLO 205 and in the test with NCI-H226 was > 100 µM (inactive) in each case.

Consider `O=C(O)[C@@H]1NC[C@H]2C(Br)=NO[C@H]21`, for which the GI50 was > 100 µM (inactive) with RXF 393; > 100 µM (inactive) in the test on CCRF-CEM; > 100 µM (inactive) in the test with UACC-257; 29.3 µM (inactive) with MOLT-4; > 100 µM (inactive) with OVCAR-3; 94.8 µM (inactive) in the test on TK-10. In addition, the GI50 in the test on SF-295, in the test on NCI-H522, in the test with A498, with KM12, with HL-60 and in the test with Malme-3M was > 100 µM (inactive) each time. In addition, the GI50 with HCC 2998, with EKVX, with OVCAR-4, in the test on MDA-MB-435, with HCT-116 and in the test on COLO 205 was > 100 µM (inactive) in each case. In addition, the GI50 with NCI-H226 was > 100 µM (inactive).

For `Cc1c(/C=N/NC(=S)Nc2cccc(Cl)c2)c(=O)n(-c2ccccc2)n1C`, the GI50 with RXF 393 was 15.8 µM (inactive); with K562, 13.8 µM (inactive); with CCRF-CEM, 22.6 µM (inactive); with UACC-257 it was 32.4 µM (inactive); in the test with MOLT-4 it was 31.3 µM (inactive); with TK-10, 16.6 µM (inactive). The GI50 with SF-295 was 10.4 µM (inactive); in the test with A498, 3.14 µM (inactive); in the test with KM12, 18.7 µM (inactive); in the test with HL-60 it was 24 µM (inactive); with HCC 2998, 55.6 µM (inactive); in the test with EKVX it was 6.65 µM (inactive). Also, the GI50 in the test on OVCAR-4 was 16.4 µM (inactive); with MDA-MB-435 it was > 100 µM (inactive); in the test with HCT-116 it was 34 µM (inactive); in the test on COLO 205, 96.6 µM (inactive); with NCI-H226, 13.8 µM (inactive).

As to `C/C(CC1SCCCS1)=C(/C)CC1SCCCS1`, the GI50 in the test on RXF 393, in the test on K562, with CCRF-CEM, in the test with MOLT-4, in the test on OVCAR-3 and in the test on TK-10 was > 100 µM (inactive) throughout. The GI50 in the test on SF-295, with A498, in the test on KM12, in the test on HL-60, in the test with Malme-3M and in the test with HCC 2998 was > 100 µM (inactive) in each case. Also, the GI50 in the test on EKVX, with OVCAR-4, in the test on MDA-MB-435, in the test on HCT-116, in the test on COLO 205 and with NCI-H226 was > 100 µM (inactive) each time.

Turning to `CN1C/C(=C\c2cccs2)C(=O)/C(=C/c2cccs2)C1`, the GI50 was 20.3 µM (inactive) with RXF 393; 25.1 µM (inactive) with K562; 5.27 µM (inactive) in the test on CCRF-CEM; 30 µM (inactive) with UACC-257; 6.59 µM (inactive) in the test with MOLT-4; 29.3 µM (inactive) in the test on OVCAR-3. The GI50 in the test with TK-10 was 38.1 µM (inactive); in the test on SF-295 it was 53.8 µM (inactive); with NCI-H522, 75.2 µM (inactive); in the test with A498, 19.7 µM (inactive); in the test with KM12 it was 21 µM (inactive); in the test on Malme-3M, 40.1 µM (inactive). In addition, the GI50 with HCC 2998 is 19.5 µM (inactive); in the test on EKVX, 19.1 µM (inactive); with OVCAR-4, 18.7 µM (inactive); in the test on MDA-MB-435 it was 16 µM (inactive); in the test with HCT-116, 14.2 µM (inactive); in the test on COLO 205, 24.4 µM (inactive). The GI50 with NCI-H226 is > 100 µM (inactive).

Take `C#C[C@]1(O)CC[C@H]2[C@@H]3CCC4=C/C(=N/CCOC(=O)c5cccc6c(=O)c7ccccc7[nH]c56)CC[C@@H]4[C@H]3CC[C@@]21C`: the GI50 in the test with RXF 393 was 5.62 µM (inactive); in the test with K562, 36.4 µM (inactive); with CCRF-CEM, 35.7 µM (inactive); in the test with UACC-257 it was 43.2 µM (inactive); in the test with MOLT-4 it was 25.9 µM (inactive); in the test on OVCAR-3 it was 33.5 µM (inactive). Moreover, the GI50 is 45.8 µM (inactive) in the test with TK-10; 23 µM (inactive) in the test with SF-295; 31.4 µM (inactive) in the test with NCI-H522; 58.6 µM (inactive) in the test on A498; 30.6 µM (inactive) with KM12; 23.1 µM (inactive) in the test on HL-60. In addition, the GI50 is 34.6 µM (inactive) with Malme-3M; 46.3 µM (inactive) in the test on EKVX; 32.7 µM (inactive) in the test on OVCAR-4; 31.8 µM (inactive) in the test on MDA-MB-435; 42.9 µM (inactive) in the test with HCT-116; 37.1 µM (inactive) in the test with COLO 205. For the same molecule, the GI50 in the test on NCI-H226 was 76.2 µM (inactive).

`C=CC(CBr)CCC(Br)C(C)(C)Br` (centres undefined): the GI50 in the test with RXF 393, with K562, in the test with CCRF-CEM, with UACC-257, in the test with MOLT-4 and with OVCAR-3 was > 10 µM (inactive) in each case. In addition, the GI50 in the test on TK-10, with SF-295, in the test with NCI-H522, with A498, in the test on KM12 and with Malme-3M was > 10 µM (inactive) in each case. Further, the GI50 in the test on HCC 2998, with EKVX, with OVCAR-4, in the test on MDA-MB-435, in the test with HCT-116 and in the test with COLO 205 was > 10 µM (inactive) in each case. Also, in the test with NCI-H226, the GI50 is > 10 µM (inactive).

Take `CC(=O)Nc1ccc(-c2nc3ccccc3s2)cc1O`: the GI50 in the test with RXF 393 was > 100 µM (inactive); in the test with K562 it was 76.2 µM (inactive); in the test with CCRF-CEM it was 22.2 µM (inactive); in the test with UACC-257, 31.6 µM (inactive); with MOLT-4, 14.6 µM (inactive); in the test on OVCAR-3 it was 94.8 µM (inactive). The GI50 in the test with TK-10 is 32.4 µM (inactive); in the test on SF-295, 52.6 µM (inactive); in the test with NCI-H522, 2.22 µM (inactive); in the test on A498, 69.7 µM (inactive); in the test with KM12, 17.2 µM (inactive); with HCC 2998, 30.6 µM (inactive). Moreover, the GI50 in the test with OVCAR-4 is 92.3 µM (inactive); in the test with MDA-MB-435, 37.8 µM (inactive); in the test with HCT-116 it was 56.1 µM (inactive); in the test with COLO 205, 33.8 µM (inactive); in the test with NCI-H226, 16.9 µM (inactive).

For the molecule `O=C(O)c1nn[nH]c1S`, the GI50 in the test with RXF 393, with K562, in the test on CCRF-CEM, in the test on UACC-257, with MOLT-4 and in the test with OVCAR-3 was > 100 µM (inactive) each time. The GI50 in the test with SF-295, in the test on NCI-H522, in the test with A498, in the test with KM12, with HL-60 and with Malme-3M was > 100 µM (inactive) each time. The GI50 in the test on HCC 2998, in the test with EKVX, in the test with OVCAR-4, in the test on MDA-MB-435, in the test on HCT-116 and in the test on COLO 205 was > 100 µM (inactive) throughout. The GI50 with NCI-H226 was > 100 µM (inactive).
